Here are results for four compounds from ChEMBL document CHEMBL1132055, “1-Aminoisoquinoline as benzamidine isoster in the design and synthesis of orally active thrombin inhibitors” (Bioorg Med Chem Lett, 1999).

One test deals with Serine protease 1 (Homo sapiens, UniProt P07477). Kind of test: Compound was tested for inhibitory activity against trypsin.
The subject of another test is Caco-2. As to conditions: Homo sapiens.
The next test has as its target Prothrombin (Homo sapiens, UniProt P00734). Kind of test: Compound was tested for inhibitory activity against thrombin.

Sequence of Serine protease 1 (P07477 whole entry): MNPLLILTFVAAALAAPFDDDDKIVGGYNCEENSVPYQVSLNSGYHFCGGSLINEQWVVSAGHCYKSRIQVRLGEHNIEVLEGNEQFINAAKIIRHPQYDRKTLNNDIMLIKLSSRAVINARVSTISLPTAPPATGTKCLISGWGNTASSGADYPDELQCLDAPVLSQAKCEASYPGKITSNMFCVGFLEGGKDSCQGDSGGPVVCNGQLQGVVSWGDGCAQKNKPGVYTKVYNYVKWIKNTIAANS
Description for Caco-2: Compound was tested for its effect on increasing the permeability of Caco-2 cells

For the compound `Nc1nccc2cc(CC(NC(=O)CNS(=O)(=O)c3ccc4ccccc4c3)C(=O)N3CCCCC3)ccc12` (stereo unspecified), the IC50 on Serine protease 1 was 255 µM; at Prothrombin it was 55 µM. In the test with Caco-2, the Papp was 19 nm/s.

At Serine protease 1, `COc1cc(C)c(S(=O)(=O)N[C@@H](CC(=O)OC(C)(C)C)C(=O)NC(Cc2ccc3c(N)nccc3c2)C(=O)N2CCCCC2)c(C)c1C` (stereo partly specified) returned a half-maximal inhibitory concentration (IC50) of 378 µM.

For the compound `Cc1ccc(S(=O)(=O)NCC(=O)NC(Cc2ccc3c(N)nccc3c2)C(=O)N2CCCCC2)cc1` (stereo unspecified), it took 357 µM to reach half-maximal inhibition against Prothrombin (IC50).

The compound `Cc1c(C)c(S(=O)(=O)NCC(=O)NC(Cc2ccc3c(N)nccc3c2)C(=O)N2CCCCC2)c(C)c2c1OC(C)(C)CC2` (stereo unspecified) had a Papp with Caco-2 of 37 nm/s.

A word on the IC50: it is the concentration needed to halve the response being measured. What is called Papp is a coefficient for how fast a substance crosses the barrier.
